Experimental findings from a melting point compilation (Tetko et al.; mined from patent text by program, amines drawn as free bases though some values may be those of a salt) are described below.

The molecule `O=C(CN1CCC(O)CC1)Nc1cccc2c1C(=O)c1c-2n[nH]c1-c1ccc(N2CCOCC2)cc1` showed a melting point of 245 °C.

`O=C(O)CCCCCc1cncc2ccccc12` had a melting point of 131 to 132 °C.

In turn, `N#CC1CN(C(=O)[C@H](NC(=O)c2c[nH]c3ncc(-c4ccccc4)nc23)C2CC2)C1` gave a melting point of 200 to 202 °C.

Regarding `COc1ccc(C(=O)c2c(CO[N+](=O)[O-])[nH]c(=O)n2C(C)=O)cc1`, the melting point is 165 to 166 °C.

With `O=C1N=NC(=O)c2c1[nH]c1cc(I)ccc21`, the melting point is greater than 250 °C.

Take `CN1CCN(C2NC(=O)c3ccccc32)CC1` (stereo unspecified): the melting point lay in the range of 168 to 170 °C.

With `COCCCc1cc(N(C)Cc2ccc(-c3ccc(C(F)(F)F)cc3)nc2C)ccc1OCC(=O)O`, the melting point was in the range of 72 to 73 °C.

In turn, `OCc1c[nH]c(-c2ccc(O)cc2)n1` registered a melting point of 212 to 214 °C.

Turning to `CCc1ccc(OC(=O)c2ccccc2)c(C(=O)c2ccc(Cl)cc2)c1`, the melting point is 79 to 81 °C.

Take `Cc1n[nH]cc1-c1cnc2[nH]c(=O)n(CC3CCOCC3)c2n1`: the melting point lay within 222 to 224 °C.

`O=C1NC(=O)C(=Cc2ccc(SCc3ccccc3)cc2)S1` gave a melting point of 237 to 238 °C.

Turning to `CCOC(=O)c1sc(SC)c2c1CCC(C=O)=C2Cl`, the melting point was in the range of 79 to 80 °C.

Consider `CCCn1c(=O)c2[nH]c(CC(C)c3ccc(OCc4ccccc4)cc3)nc2n(CCC)c1=O` (stereo unspecified), for which the melting point lay in the range of 124 to 126 °C.

As for `COc1cccc(S(=O)(=O)c2ccc3c(c2)[C@@H](Nc2ccnc(Cl)n2)[C@](C)(O)C(C)(C)O3)c1`, the melting point was 228 to 230 °C.

In turn, `CCOc1ccc2c(c1)C(O)Cc1c(Cl)cccc1S2` (stereo unspecified) yielded a melting point of 88 to 90 °C.

`C=CC(=O)OCCOc1ccc(-c2nc(-c3ccc(Cl)cc3)nc(-c3ccc(OCCOC(=O)C=C)cc3O)n2)c(O)c1` yielded a melting point of 115 to 120 °C.

With `CC(C)Oc1nc(CO)sc1C(=O)NCc1ccc(Cl)cc1Cl`, the melting point is 127 to 128 °C.

In the case of `CC(=O)OCc1nc(Cl)cc(N2CCCC2)n1`, the melting point lay within 101 to 103 °C.

Turning to `COc1ccc2c(c1CC#N)Sc1c(ccc(OC)c1CN1C(=O)c3ccccc3C1=O)N2Cc1ccccc1`, the melting point was determined as 230 °C.

The molecule `COc1ccc(-c2nc(C)nn2-c2ccc(S(N)(=O)=O)cc2)cc1OC` yielded a melting point of 176 to 178 °C.

Regarding `COC(=O)c1cccc(C(=O)c2cc(C(=O)OC)cc(OC)c2OC)c1`, the melting point fell in the range of 160 to 161 °C.

In turn, `CN(CCCSc1ccncc1)C(=O)c1cccs1` registered a melting point of 72 to 72.5 °C.

In turn, `NC(=O)c1sc(-c2ccccc2)cc1N` registered a melting point of 180 to 182 °C.

Take `Cn1c(=O)c2[nH]c(CCCC(=O)O)nc2n(C)c1=O`: the melting point was 254 to 255 °C.

`O=C(O)CCc1cn(Cc2ccc(OCc3csc(-c4ccccc4)n3)nc2)nc1-c1ccccc1` had a melting point of 107 to 108 °C.

Regarding `COc1ccc(Cn2c(=O)[nH]c3ccc(C)cc3c2=O)cc1`, the melting point is 263 to 265 °C.

Regarding `O=c1[nH]cnc2cc(Br)sc12`, the melting point lay in the range of 238 to 240 °C.

For `O=C1C(=O)c2ccc(-c3cccnc3)cc2C2=C1SCC1(CCNCC1)O2`, the melting point lay within 213 to 215 °C.

In the case of `CC(C)(C)OC(=O)N[C@@H](C=O)Cc1ccc(OCc2ccccc2)cc1`, the melting point lay within 98 to 99 °C.

The molecule `CC(C)[C@H](O)C(=O)NCCc1ccccc1` yielded a melting point of 100 °C.

`O=C(Nc1ccccc1)Nn1ccc2ccccc21` showed a melting point of 243 °C.

The molecule `CC(C)(C)OC(=O)N[C@H]1COC1=O` displayed a melting point of 120 to 122 °C.

As for `O=c1c(Cc2cccnc2)cn2c3cc(Cl)ccc3c3cc(OCCCO)cc1c32`, the melting point was in the range of 137 to 139 °C.

In turn, `O=C(CN1CCOCC1)Nc1ccc(-n2nc(C3CC3)cc2C2CC2)cc1` registered a melting point of 178 to 184 °C.

Consider `Cn1cc(CS(C)(=O)=O)c(=O)c2ccc(Cl)cc21`, for which the melting point lay in the range of 215 to 216 °C.

`O=C(O)C(Cc1ccc(OCc2ccccc2)cc1)c1ccccc1` (stereo unspecified) displayed a melting point of 133 to 137 °C.
